The results in this text go back to PubChem BioAssay (NCI).

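Results reflect a 48-hour exposure of cells in 96-well plates to compound at five concentrations. TGI denotes the concentration required for complete inhibition of growth.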

Test in all cases: DTP human tumour cell line panel, 48 h
The subject of experiment [1] is A498 renal.
Experiment [2] has as its system HCC-2998 colon.
Experiment [3] relates to HT29 colon.
The test system of experiment [4] is IGROV1 ovarian.
The test system of experiment [5] is LOX IMVI melanoma.
The test system of experiment [6] is OVCAR-3 ovarian.
Experiment [7] has as its system OVCAR-5 ovarian.
For experiment [8], the system named is UACC-62 melanoma.
The test system of experiment [9] is DU-145 prostate.
The subject of experiment [10] is PC-3 prostate.

Take `CS(=O)(=O)OCCCOS(C)(=O)=O`: the TGI in experiment [1], in experiment [2], in [3], in experiment [4], in experiment [5] and in experiment [6] was greater than 100 µM each time. Also, the TGI in experiment [7] and in experiment [8] was greater than 100 µM each time.

Regarding `COC(=O)c1ccccc1C1CN=NC12Cc1cccc(C)c1C2=O` (centres undefined), the TGI in experiment [1], in experiment [9], in experiment [2], in [3], in experiment [4] and in experiment [5] was greater than 100 µM in each case. Moreover, the TGI is 82.1 µM in experiment [6], greater than 100 µM in experiment [7] and greater than 100 µM in [8].

For the compound `CSc1nc2c(=O)n(-c3ccccc3)c(=S)n(-c3ccccc3)c2s1`, the concentration for total growth inhibition (TGI) in experiment [9], in experiment [2], in experiment [3], in [4], in experiment [5] and in experiment [6] was greater than 100 µM each time. The TGI in experiment [7] and in experiment [10] was greater than 100 µM in each case.

Regarding `COc1cc(C2c3cc4c(cc3[C@@H](Nc3cccc([N+](=O)[O-])c3)C3COC(=O)[C@H]23)OCO4)cc(OC)c1O` (some centres undefined), the TGI was 4.47 µM in [1]; 6.41 µM in [2]; 13.1 µM in experiment [3]; greater than 84.4 µM in experiment [4]; 19.6 µM in experiment [5]; 33.2 µM in experiment [6]. The values for the TGI in [7] and in experiment [8] were greater than 100 µM and 15.7 µM, respectively.

Take `COc1ccc(Oc2nc(C#CC(C)(C)O)nc(Oc3ccc(OC)cc3)n2)cc1`: the TGI is 31.6 µM in [1]; 7.16 µM in experiment [9]; 10.8 µM in experiment [3]; 18.9 µM in experiment [4]; 3 µM in experiment [5]; 4.58 µM in experiment [6]. Also, the TGI stood at 16.6 µM in experiment [7], 7.69 µM in experiment [10] and 25 µM in experiment [8].

With `C#CCn1c(=O)c(Cl)cn(/C(=C/C(=O)OCC)C(=O)OCC)c1=O`, the TGI in experiment [1] is 40.8 µM; in experiment [9], 33 µM; in experiment [3] it was 39.5 µM; in experiment [4], 35.1 µM; in [5], 19.9 µM; in experiment [6] it was 11.7 µM. Besides, the TGI turned out to be 31.7 µM in [7], 31.5 µM in [10] and 29.8 µM in experiment [8].

`CCSc1nc(N)c2c(-c3ccccc3)c3c(nc2n1)CCC3`: the TGI in experiment [9], in experiment [4], in experiment [5], in experiment [6], in experiment [7] and in experiment [10] was greater than 100 µM each time. Moreover, in experiment [8], the TGI was greater than 100 µM.

For `COC(=O)[C@H](Cc1ccccc1)NP(=O)(O)OCC1C=CC(n2cc(C)c(=O)[nH]c2=O)O1` (some centres undefined), the TGI in experiment [9], in experiment [2], in [3], in experiment [4], in experiment [5] and in experiment [6] was greater than 100 µM in each case. Also, the concentration for total growth inhibition (TGI) in [7], in experiment [10] and in experiment [8] was greater than 100 µM in each case.

Take `CC(Cc1ccccc1)NC1=NCCO1` (centres undefined): the TGI is 85.5 µM in experiment [1]; 71 µM in experiment [2]; 40.3 µM in [3]; greater than 100 µM in experiment [4]; 34.9 µM in [5]; greater than 100 µM in experiment [7]. Besides, the TGI in experiment [10] and in experiment [8] was greater than 100 µM each time.

Turning to `CC1(CC2=C(C(=O)NCCO[Si](C)(C)C(C)(C)C)C3(OCCO3)C2=O)OCCO1`, the TGI in experiment [1], in experiment [9], in experiment [3], in experiment [4], in experiment [5] and in [6] was greater than 100 µM each time. The TGI in experiment [7], in experiment [10] and in [8] was greater than 100 µM each time.

As for `C#CC(O)/C=C/C(O)CCCC(O)CC#CC(O)C#CC(O)CCCC(O)/C=C/CCCC(=O)CCCCCCCCCCCCCCCC(O)C(O)C#CC(=O)O` (centres undefined), the TGI in [9] was greater than 50 µM; in experiment [2] it was greater than 50 µM; in experiment [3], greater than 50 µM; in [4], 21.1 µM; in [5] it was 20.8 µM; in experiment [7], greater than 50 µM. Further, the TGI in experiment [10] and in experiment [8] was greater than 50 µM in each case.

`CCOC(=O)CSc1[nH]c(NC(=S)Nc2ccccc2)c(C(N)=O)c1C(N)=O`: the TGI in experiment [9], in experiment [2], in experiment [3], in [4], in [5] and in [10] was greater than 10 µM each time. Besides, the TGI in experiment [8] was greater than 10 µM.

Regarding `c1ccc(C(CCN2CC3CCC(CC3)C2)c2ccccc2)cc1`, the TGI in experiment [1] was 34.1 µM; in experiment [9] it was greater than 100 µM; in experiment [3], 48.4 µM; in experiment [4] it was greater than 100 µM; in experiment [5], 30.6 µM; in experiment [6], 44.3 µM. In addition, the figures for the TGI in experiment [7], in experiment [10] and in experiment [8] were 56.8 µM, greater than 100 µM and 35.3 µM, respectively.

Consider `O=c1cc(N=Nc2ccc(Cl)cc2)[nH]c(=O)[nH]1`, for which the TGI in experiment [9] was 22.6 µM; in experiment [2], 9.1 µM; in experiment [3], 5.44 µM; in [4], 8.92 µM; in experiment [5], 3.45 µM; in experiment [6], 9.53 µM. For the same compound, the TGI in [7] was found to be 32.2 µM; in experiment [10], 11.7 µM; in experiment [8], 7.11 µM.

Regarding `COc1ccc(/C=N/NC(=O)c2cnc3[nH]c(=O)n(C)c(=O)c3c2)cc1`, the TGI in experiment [9], in [2], in experiment [3], in [4], in experiment [6] and in [7] was greater than 100 µM in each case. Further, the TGI in experiment [10] and in [8] was greater than 100 µM each time.

Turning to `CCN(CC)C(=O)N1CN(c2ccccc2)C2(CCN(CCCSc3ccc(F)cc3)CC2)C1=O`, the TGI in experiment [9] came out at 40.7 µM; in experiment [3], 13 µM; in experiment [5], 10.7 µM; in experiment [6], 18.6 µM; in experiment [7] it was 36.9 µM; in experiment [10], 36.5 µM.

As for `CCN(CC)CCCC(C)NC(=O)c1ccc2c(c1)C(=O)c1ccccc1C2=O` (centres undefined), the TGI in experiment [1] was 42.3 µM; in experiment [2], 33.5 µM; in [3], 53 µM; in experiment [4] it was 55.3 µM; in experiment [5], 39.6 µM; in [6] it was 32.2 µM. The TGI in experiment [7] was determined as 34.2 µM; in [8], 39.3 µM.

In the case of `O=C1CCCC2=C1CC1=C(CCCC1=O)N2c1ccccc1`, the TGI in [1], in experiment [2], in experiment [3], in experiment [4], in experiment [5] and in [6] was greater than 100 µM each time. For the same compound, the TGI in [7], in [10] and in experiment [8] was greater than 100 µM in each case.

As for `CCCCCCC(C)OC(=O)/C=C(\CC(=O)OC(C)CCCCCC)C(=O)OC(C)CCCCCC` (centres undefined), the TGI in experiment [1], in [2], in [3], in experiment [4], in [5] and in [6] was greater than 100 µM each time. Also, the total growth inhibition concentration (TGI) in [7] and in experiment [8] was greater than 100 µM throughout.

On to `CC(=O)OCC1OC(O/C=C(\CN=[N+]=[N-])C(C)=O)C(OC(C)=O)C(OC(C)=O)C1OC(C)=O` (centres undefined), for which the TGI in experiment [1] was 47.5 µM; in [2], 35 µM; in experiment [3], 27.2 µM; in experiment [4] it was 39.2 µM; in experiment [5], 17.1 µM; in experiment [6], 28.7 µM. The results for the TGI in [7], in experiment [10] and in experiment [8] were 32.9 µM, 27.8 µM and 25.3 µM, respectively.

As for `Oc1ccc(O)c(CNc2ccccc2)c1`, the TGI in experiment [9] was 32.2 µM; in experiment [2], 67.7 µM; in experiment [3], greater than 100 µM; in [4] it was 33.4 µM; in experiment [5], 28.1 µM; in experiment [6] it was 19.3 µM. Further, the TGI in experiment [7] is 41.7 µM; in experiment [10], 30 µM; in experiment [8], 30.6 µM.

As for `CCN(CC)CCCOc1cc2c(cc1OC)C(=O)N1CCC[C@H]1C=N2`, the TGI was 92.4 µM in experiment [1]; greater than 100 µM in [9]; 39.5 µM in experiment [3]; 31.3 µM in [5]; 50 µM in experiment [6]; greater than 100 µM in experiment [7]. Moreover, the TGI in experiment [10] is greater than 100 µM; in experiment [8] it was 54.3 µM.

In the case of `C=C1C(=O)O[C@@H]2[C@H](O)[C@@H](C)[C@@H]3C=CC(=O)[C@@]3(C)[C@H](OC(=O)C=C(C)C)[C@H]12`, the TGI worked out at 4.65 µM in experiment [1]; 3.23 µM in experiment [2]; 3.82 µM in experiment [3]; 4.48 µM in experiment [4]; 2.25 µM in [5]; 2.15 µM in experiment [6]. Further, the TGI came out at 4.67 µM in [7] and 1.87 µM in [8].

Consider `O=C(OCCC12CC3CC(CC(C3)C1)C2)c1ccc(NCc2cc(O)ccc2O)cc1`, for which the TGI in experiment [1] worked out at 4.83 µM; in experiment [9], 13.7 µM; in [3], 10.6 µM; in experiment [4], 0.277 µM; in [5] it was 4.37 µM; in experiment [6], 0.626 µM. Further, the total growth inhibition concentration (TGI) in experiment [10] is 14.5 µM; in experiment [8] it was 3.61 µM.

As for `O=[N+]([O-])c1ccc2c(c1)c(S(=O)(=O)O)cc1nonc12`, the TGI in experiment [1], in experiment [3], in [4], in experiment [5], in [6] and in experiment [7] was greater than 100 µM throughout. In addition, the TGI in experiment [10] and in experiment [8] was greater than 100 µM each time.

Regarding `COc1ccc(-c2cc(-c3cc(F)c(Cl)cc3Cl)on2)cc1OC`, the TGI in experiment [9], in [3], in experiment [4], in experiment [5], in [6] and in experiment [7] was greater than 100 µM each time. Further, in [10], the TGI was greater than 100 µM.

In the case of `O=C1c2ccccc2C(=O)c2c(O)ccc(O)c21`, the TGI is greater than 100 µM in experiment [1]; greater than 100 µM in experiment [2]; greater than 100 µM in experiment [3]; greater than 100 µM in experiment [4]; greater than 100 µM in experiment [5]; 94.1 µM in experiment [6]. Moreover, the TGI in experiment [7] and in experiment [8] was greater than 100 µM throughout.

With `COC(=O)c1cc(C(=CCC[C@H]2CC[C@@]3(C)C(CCC4C3CC[C@@]3(C)C4CC[C@@H]3C(C)CCCC(C)C)C2)c2cc(Cl)c(OC(=O)c3ccccc3)c(C(=O)OC)c2)cc(Cl)c1OC(=O)c1ccccc1` (some centres undefined), the TGI in experiment [9], in experiment [2], in experiment [3], in experiment [4], in experiment [5] and in [6] was greater than 10 µM in each case. Moreover, the TGI in experiment [7], in [10] and in experiment [8] was greater than 10 µM throughout.

Regarding `CCOc1ccc2nc(NC(NC(=O)c3cccnc3)(C(F)(F)F)C(F)(F)F)sc2c1`, the TGI in experiment [9] was greater than 100 µM; in experiment [2], 84.3 µM; in experiment [3] it was 30.5 µM; in [6], greater than 100 µM; in experiment [7], greater than 100 µM; in [10] it was 78.6 µM. This compound also displayed a TGI in experiment [8] of 91.6 µM.

As for `CC1CCc2sc3[nH]c(=S)n(-c4ccccc4)c(=O)c3c2C1` (centres undefined), the TGI was greater than 100 µM in experiment [9]; 67.8 µM in experiment [2]; greater than 100 µM in experiment [3]; greater than 100 µM in experiment [4]; greater than 100 µM in [5]; 85.3 µM in experiment [6]. In addition, the TGI in [7], in experiment [10] and in experiment [8] was greater than 100 µM each time.

Take `NS(=O)(=O)c1nnc(NS(=O)(=O)c2ccccc2C(=O)O)s1`: the TGI in experiment [1], in experiment [9], in [2], in experiment [3], in experiment [5] and in [6] was greater than 100 µM throughout. Moreover, the TGI in [7] and in [8] was greater than 100 µM each time.
